Tests used:
[1] = Naltrexone plasma pharmacokinetics from the literature and its reinterpretation; assay type: in vivo
Excerpt: Phase II (RLD)—Days two to thirty. […] The higher serum levels of this phase serve two purposes. First, for the particular therapeutic agent chosen, the long-term maintenance dose releases drug slowly at a constant (zero order) rate. […] It has the disadvantage, however, that the plasma level will slowly rise until it reaches a plateau, which is referred to as steady state. The time to reach steady state is a function of the drug's half-life, a measure of the time it takes for half of the drug to be eliminated from the body. It takes approximately six half-lives to reach steady state for any drug. […] During this time it is essential that an additional source of drug be administered as a receptor loading dose to continue to saturate the drug receptors. A second reason for this loading dose, particularly for drugs used to treat addictions, is to prevent cravings and other withdrawal symptoms.
A period of approximately 3.3 half-lives is necessary to achieve a 90% receptor occupancy level.
Phase II (months 1 to 2) provides higher levels than the minimum needed to prevent narcotic highs. […] For pharmacokinetic reasons, the higher levels are also needed until the steady state distribution levels are reached through the slower maintenance dose.

opiate receptors = conditions: recommended dose of 50 mg taken orally; cited from earlier work

O=C1CC[C@@]2(O)[C@H]3Cc4ccc(O)c5c4[C@@]2(CCN3CC2CC2)[C@H]1O5 [naltrexone]
time to reach 90% receptor occupancy level ([1]; calculated as 3.3×72 hr at the maintenance rate): about 10 days | time to reach 98% occupancy ([1]; maintenance rate): about 20 days | steady state level ([1]; subcutaneous product, zero order rate of 0.56 mg/day): about 7.5 ng/ml | duration of complete blockage (opiate receptors): 24 h
